Test results from patent US6852485B1, “Method for identifying a compound for the treatment of microorganism infections by inhibiting energy storage and utilization in pathogens” (California State University Fullerton Foundation, priority 2002, dated 2005).

Target: T1, Rhodobacter sphaeroides (Rb.s.) ADPG Ppase (Cereibacter sphaeroides, UniProt Q9RNH7)
T1 construct: made in house
Experiment: ADPGlc synthesis assay (14-C Glc-1-P converted to ADPGlucose) with purified recombinant Rb.s. ADPG Ppase, with and without activator F6P
Format: biochemical
Details: for inhibition of Rb.s. ADPG Ppase: 500 μM analog, 0.25 mM ATP, 0.5 mM Glc-1-P, pH 7
Source text: One particular in vitro method for assessing the activity of an inhibitor to purified ADPGlc PPase is the following: • Assaying for ADPGlc synthesis activity involves measuring the amount of 14-C labeled Glc-1-P converted to ADPGlucose (Preiss, J., Shen, L., Greenberg, E., and Gentner, N. (1966) Biochemistry 5, 1833-1845). Briefly, unreacted Glc-1-P is separated from product by the following steps: 1)digestion with alkaline phosphatase (thus removing the negatively charged phosphate); 2) spotting an aliquot of the reaction mixture on to positively charged DE-81 filters (Whatman); and 3) washing the filters with water (thus removing the now neutral C-14 glucose).
To assess the effect of a putative inhibitor, enzyme assays are performed at a subsaturating concentration of substrate (depending on the enzyme, ATP=0.2-1 mM, Glc-1-P=0.5 mM) under standard conditions in the absence and presence of the major activator for each enzyme (1-5 mM depending on enzyme). In this way, the effect of the inhibitors can be evaluated under the range of the expected in vivo conditions. Initial screening of a putative inhibitor typically includes testing at two concentrations (˜25 μM and 1 mM)±major activator with appropriate controls and blanks for a total of 9 assays/inhibitor/enzyme (2 control assays—appropriate enzyme concentrations in the absence of inhibitor; 4 experimental assays; 1 blank in the absence of inhibitors; 2 blanks in the presence of inhibitor (no activator required).
The APDGIc Ppase from Rhodobacter sphaeroides has been used as a model enzyme for initial testing of inhibitors as it has been cloned, sequenced, and expressed in the inventor's laboratory (Meyer et al (1999) Arch. Biochem. Biophys. 372, 179-188; Igarashi, R. Y. and Meyer, C. R. (2000) Arch. Biochem. Biophys. 376, 47-58) and the purified recombinant enzyme is readily available. Further, this particular enzyme has the most complex regulation (having partial overlap with nearly every type of ADPG Ppase) and has sufficient homology (ranging from ˜40-70% similarity) to the enzyme primary sequence from the mentioned pathogenic bacteria.
PREMIX: A: 100 mM HEPES (pH 7), 0.5 mg/mL BSA, 0.5 mM Glc-1-P, 0.25 mM ATP subsaturating (near S0.5 value), 5 mM MgCl2, (0.2 U Pyrophosphatase))
PREMIX B: A+1 mM F6P (170 μL premix will allow 20 μL for analog vol., 10 μL of E)
II. ANALOG CONC.=5, 50, 500 μM (STOCK CONC.=5 mM) in 50 mM HEPES, pH 7, note that 20 μL of 5 mM in 200 μL assay will yield 500 μM final concentration to obtain 5 mM aliquots: • ANALOG I: add 625 μL of HEPES buffer, mix thoroughly • ANALOG II: add 500 μL of HEPES buffer, mix thoroughly
1:10 DILUTION ALIQUOTS OF 5 mM STOCKS are prepared in order to generate stock solutions that will give 50 and 5 μM with the addition of 20 μL. 100 μL aliquots are stored at −20 C
RBS ADPG PPASE WT ENZYME CONC.=17 mg/mL (use 1:8000 dilution in Dilution Buffer)
THE FOLLOWING ASSAY SET OF 11 ARE UTILIZED FOR EACH ANALOG • 1-BLANK (Premix A) • 2-BLANK+50 μM ANALOG (A) • 3-BLANK+500 μM ANALOG (A) • 4-E CON (A) • 5-E CON+F6P (B) • 6-E+5 μM (A) • 7-E+5 μM((B) • 8-E+50 μM(A) • 9-E+50 μM(B) • 10-E+500 μM (A) • 11-E+500 μM (B)
Purified Rb.s ADPG Ppase was assayed under standard conditions (0.25 mM ATP [˜S0.5 value], 0.5 mM Glc-1-P, 5 mM Mg, 100 mM HEPES, pH7) in the presence and absence of the activator F6P (1 mM) at 3 concentrations of the analogs: 5, 50, and 500 μM. Analog stock solutions were made in 50 mM HEPES, pH 7). These concentrations should be regarded as estimates as there could have been some breakdown of the compounds during 2 years of storage at −20° C. The analogs had no effect on the background cpm of the assays.

[1] = E + 5 uM analog, Premix A (no F6P)
[2] = E + 5 uM analog, Premix B (+1 mM F6P)
[3] = E + 50 uM analog, Premix A (no F6P)
[4] = E + 50 uM analog, Premix B (+1 mM F6P)
[5] = E + 500 uM analog, Premix A (no F6P)
[6] = E + 500 uM analog, Premix B (+1 mM F6P)

T1 sequence (Q9RNH7 whole entry): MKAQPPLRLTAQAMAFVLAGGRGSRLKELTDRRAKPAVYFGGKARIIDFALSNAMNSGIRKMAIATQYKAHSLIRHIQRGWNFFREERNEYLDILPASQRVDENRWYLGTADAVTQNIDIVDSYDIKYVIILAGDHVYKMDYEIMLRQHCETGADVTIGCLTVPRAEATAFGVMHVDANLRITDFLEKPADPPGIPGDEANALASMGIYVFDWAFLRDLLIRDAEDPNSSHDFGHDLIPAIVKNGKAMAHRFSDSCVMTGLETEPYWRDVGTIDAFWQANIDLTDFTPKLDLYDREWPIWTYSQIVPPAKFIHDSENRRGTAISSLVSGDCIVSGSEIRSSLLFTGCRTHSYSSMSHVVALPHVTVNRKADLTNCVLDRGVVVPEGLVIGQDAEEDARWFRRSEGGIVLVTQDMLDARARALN

## BP(=O)(OC[C@H]1O[C@@H](n2cnc3c(N)ncnc32)[C@H](O)[C@@H]1O)OP(=O)(O)O[C@H]1O[C@H](CO)[C@@H](O)[C@H](O)[C@H]1O (single isomer, unassigned) [Analog II, adenosine-α-P-boranodiphosphoglucose]
Absence of the activator F6P
  inhibition of Rb.s. ADPG Ppase: about 70%
Presence of F6P (1 mM)
  inhibition of Rb.s. ADPG Ppase: about 70%
[1]
  Units/mg (enzyme activity): 5.28 Units/mg
[2]
  Units/mg (enzyme activity): 93.86 Units/mg
[3]
  Units/mg (enzyme activity): 4.38 Units/mg
[4]
  Units/mg (enzyme activity): 76.73 Units/mg
[5]
  Units/mg (enzyme activity): 1.77 Units/mg
[6]
  Units/mg (enzyme activity): 33.51 Units/mg

## BP(=O)(OC[C@H]1O[C@@H](n2cnc3c(N)ncnc32)[C@H](O)[C@@H]1O)OP(=O)(O)O[C@H]1O[C@H](CO)[C@@H](O)[C@H](O)[C@H]1O (single isomer, unassigned) [Analog I, adenosine-α-P-boranodiphosphoglucose]
Absence of the activator F6P
  inhibition of Rb.s. ADPG Ppase: about 75%
Presence of F6P (1 mM)
  inhibition of Rb.s. ADPG Ppase: ~50%
[1]
  Units/mg (enzyme activity): 4.02 Units/mg
[2]
  Units/mg (enzyme activity): 91.75 Units/mg
[3]
  Units/mg (enzyme activity): 3.55 Units/mg
[4]
  Units/mg (enzyme activity): 87.40 Units/mg
[5]
  Units/mg (enzyme activity): 1.33 Units/mg
[6]
  Units/mg (enzyme activity): 53.37 Units/mg
